Article PMC6125551 (Antimicrobial Agents and Chemotherapy, 2018)
Like-named read-outs stand apart in the source and are kept apart here.

What was measured:
[1] = for AUC(0-t) / half-life: male, human, in vivo
Protocol: (§1) Each panel was dosed sequentially, allowing for assessment of safety and tolerability before dose escalation.
(§2) The plasma was mixed with a stabilizer containing morpholineethanesulfonic acid buffer and ethylene glycol before storage at −70°C. […] The assay utilized hydrophilic interaction chromatography (HILIC) and tandem mass spectrometry. Stable isotope-labeled internal standards were used for all three analytes.
(§3) Pharmacokinetic parameters were determined from plasma and urine concentration-time data by a noncompartmental approach using Phoenix WinNonlin, version 6.3 (Certara LP, Princeton, NJ, USA). The CEOI (concentration at end of infusion) and Tmax (time to maximum concentration) were generated from each analyte's plasma concentration-time data. All AUC values were calculated using the linear trapezoidal method for ascending concentrations and the log trapezoidal method for descending concentrations (calculation method options in WinNonlin). AUC0–∞ was calculated as the sum of AUC0–last and Cest, last/λz, where AUC0–last is the AUC from time 0 to the time of the last quantifiable concentration, Cest, last is the predicted concentration at the time of the last quantifiable concentration, and λz is the apparent terminal rate constant. […] At least three consecutive data points (excluding Cmax) in terminal phase were used for λz calculations. Clearance (CL) was calculated as dose/AUC0–∞.

[2] = Urine pharmacokinetics, single dose, study 1 part I, healthy men; conditions: imipenem-cilastatin 500 mg alone, adult men from study 1
Protocol: (§4) In each panel, in all periods (except period 4), subjects were randomized to receive a placebo (n = 2) or relebactam (n = 6).
as §2
(§5) The amount of unchanged drug excreted in urine during a collection interval (Ae) was calculated by a cumulative sum of urine (concentration of unchanged drug × volume) per collection interval. The fraction of the dose excreted in urine (fe) was calculated as Ae/dose.

[3] = Urine pharmacokinetics, single dose, study 2; conditions: both, human, CLR, range
Protocol: (§6) Study 2 (protocol 002) was a phase 1, randomized, double-blind, placebo-controlled study with three panels of healthy participants that included elderly men (panel L [n = 8]), elderly women (panel M [n = 8]), and adult women (panel N [n = 8]).
as §2, §5

clinical [4] = conditions: male, human, 500 mg
Protocol: (§7) Study 1 (protocol 001) was a phase 1, randomized, double-blind, placebo-controlled, rising single- and multiple-dose study conducted at a single center that investigated relebactam in healthy adult men. The study was conducted in four parts, and all doses were administered intravenously (i.v.) in a total volume of 100 ml over 30 min.
as §4, §2, §3

clinical [5] = conditions: male, human, in vivo
Protocol: as §1, §2, §3

clinical [6] = conditions: female, human, plasma, intravenous
Protocol: as §6, §2, §3

[7] = Plasma pharmacokinetics, single dose as 30-min i.v. infusion, study 1 part I, healthy men; conditions: for half-life / AUC(0-inf) / concentration at 30 min / clearance / Vd: male, human, plasma; for AUC(0-inf): AUC0–∞; for concentration at 30 min: CEOI; for clearance: CL; for Vd: Vz;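 on all read-outs here: plasma analyte levels quantified by HILIC with tandem mass spectrometry, parameters derived noncompartmentally in WinNonlin, AUC by linear-up log-down trapezoidal rule, clearance taken as dose over AUC0–∞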
Protocol: as §7, §4, §2, §3

clinical [8] = conditions: male, human, in vivo; remark: listed apart in the source
Protocol: as §4, §2, §5

[9] = Plasma pharmacokinetics, single dose, study 2 (elderly men, elderly women, adult women)
Protocol: as §6, §2, §3

clinical [10] = conditions: male, human, in vivo, unbound CLR
Protocol: as §1, §2, §5

[11] = Safety and tolerability, single dose, study 1 part I; assay type: in vivo, human
From the text: The safety analysis comprised the all-subjects-as-treated (ASaT) population, which included those participants who received ≥1 dose of investigational drug.

[12] = male, human, in vivo, 250 mg
Protocol: as §4, §2, §5

[13] = male, human, in vivo
Protocol: as §1, §2, §5

[14] = assumed for the calculation, no reference given; cited from earlier work
[15] = urine and plasma, intravenous, adult participants (men and women)
[16] = urine and plasma, intravenous, elderly participants (men and women)
[17] = intravenous, 25 mg, relebactam 25 mg alone, single dose
[18] = intravenous, 50 mg, relebactam 50 mg alone, single dose
[19] = intravenous, 250 mg, relebactam 250 mg alone, single dose
[20] = intravenous, 500 mg, relebactam 500 mg alone, single dose
[21] = intravenous, 1000 mg, relebactam 1,000 mg alone, single dose
[22] = intravenous, 1150 mg, relebactam 1,150 mg alone, single dose
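Wherever CEOI is given: plasma levels quantified by HILIC with tandem mass spectrometry and isotope-labeled internal standards, parameters derived noncompartmentally in WinNonlin, clearance equal to dose divided by AUC0-∞.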

With `CC1(C)C[C@@H]1C(=O)N/C(=C\CCCCSC[C@H](N)C(=O)O)C(=O)O` [Cilastatin] the CEOI ([1]; 0 mg relebactam + 500 mg imipenem/cilastatin, panel I, day 1, N 1) was 144 µM, the CEOI ([1]; 0 mg relebactam + 500 mg imipenem/cilastatin, panel J, day 1) was 107 ± 6.53 µM and the CEOI ([1]; 0 mg relebactam + 500 mg imipenem/cilastatin, panel K, day 1) was 104 ± 10.4 µM. It also gave a CEOI ([1]; 50 mg relebactam + 500 mg imipenem/cilastatin, panel C, day 1) of 106 ± 12.0 µM, a CEOI ([1]; 250 mg relebactam + 500 mg imipenem/cilastatin, panel F, day 1) of 103 ± 20.0 µM and a CEOI ([1]; 500 mg relebactam + 500 mg imipenem/cilastatin, panel H, day 1) of 115 ± 21.9 µM. For the same compound, the CEOI ([1]; 500 mg relebactam + 500 mg imipenem/cilastatin, panel J, day 1) was 98.5 ± 14.6 µM, the AUC(0-t) ([1]; AUC0-6, 0 mg relebactam + 500 mg imipenem/cilastatin, panel I, day 1, N 1) was 167 µM·h and the AUC(0-t) ([1]; AUC0-6, 0 mg relebactam + 500 mg imipenem/cilastatin, panel J, day 1) was 110 ± 7.17 µM·h. It also gave an AUC(0-t) ([1]; AUC0-6, 0 mg relebactam + 500 mg imipenem/cilastatin, panel K, day 1) of 126 ± 37.9 µM·h, an AUC(0-t) ([1]; AUC0-6, 50 mg relebactam + 500 mg imipenem/cilastatin, panel C, day 1) of 127 ± 24.8 µM·h and an AUC(0-t) ([1]; AUC0-6, 250 mg relebactam + 500 mg imipenem/cilastatin, panel F, day 1) of 110 ± 14.2 µM·h. For the same compound, the AUC(0-t) ([1]; AUC0-6, 500 mg relebactam + 500 mg imipenem/cilastatin, panel H, day 1) was 136 ± 22.5 µM·h, the AUC(0-t) ([1]; AUC0-6, 500 mg relebactam + 500 mg imipenem/cilastatin, panel J, day 1) was 106 ± 17.2 µM·h and the half-life ([1]; Terminal t1/2, 0 mg relebactam + 500 mg imipenem/cilastatin, panel I, day 1, N 1) was 0.962 h. For the same compound, the half-life ([1]; Terminal t1/2, 0 mg relebactam + 500 mg imipenem/cilastatin, panel J, day 1) was 0.862 ± 0.088 h, the half-life ([1]; Terminal t1/2, 0 mg relebactam + 500 mg imipenem/cilastatin, panel K, day 1) was 0.908 ± 0.182 h and the half-life ([1]; Terminal t1/2, 50 mg relebactam + 500 mg imipenem/cilastatin, panel C, day 1) was 1.01 ± 0.142 h. It also gave a half-life ([1]; Terminal t1/2, 250 mg relebactam + 500 mg imipenem/cilastatin, panel F, day 1) of 0.998 ± 0.087 h, a half-life ([1]; Terminal t1/2, 500 mg relebactam + 500 mg imipenem/cilastatin, panel H, day 1) of 1.01 ± 0.146 h and a half-life ([1]; Terminal t1/2, 500 mg relebactam + 500 mg imipenem/cilastatin, panel J, day 1) of 0.874 ± 0.117 h. For the same compound, the “fe, least squares mean (95% CI)” value [2] was 88.5 (82.1, 94.9) %, the CL renal ([2]; male, human, in vivo, 500 mg, CLR, mean (95% CI)) was 168 mL/min and the CL renal ([3]; in vivo, adult participants (men and women)) was 157 to 168 mL/min. The CL renal ([3]; in vivo, elderly participants (men and women)) was 112 to 126 mL/min, the AUC(0-inf) (clinical [4]; in vivo) was 114 ± 13.5 µM·h and the Vd (clinical [4]; in vivo) was 16.5 ± 2.11 L. The concentration at 30 min (clinical [4]; in vivo) was 101 ± 16.6 µM and the half-life (clinical [4]; in vivo) was 0.92 ± 0.051 h.
`C[C@@H](O)[C@H]1C(=O)N2C(C(=O)O)=C(SCCN=CN)C[C@H]12` [Imipenem] gave an AUC(0-t) (clinical [5]) of 138 ± 15.3 µM·h, a clearance (clinical [5]) of 178 ± 16.1 mL/min and an AUC(0-inf) (clinical [6]) of 132 ± 18.9 µM·h. It also gave a half-life ([7]; intravenous, t1/2, observed, compared with relebactam) of 1.1 h, a CL renal (clinical [8]; 500 mg) of 106 ± 20.3 mL/min and a CL renal (clinical [8]; 500 mg, CLR, mean (95% CI)) of 108 mL/min. For the same compound, the CL renal [3, 15] was 98.6 to 108 mL/min, the CL renal [3, 16] was 67.6 to 80.9 mL/min and the AUC(0-inf) (clinical [4]; plasma, intravenous) was 140 ± 16.7 µM·h. The clearance (clinical [4]; plasma, intravenous) was 201 ± 21.4 mL/min, the concentration at 30 min (clinical [4]; plasma, intravenous) was 102 ± 17 µM and the half-life (clinical [4]; plasma, intravenous) was 1.13 ± 0.075 h.
For `O=C(NC1CCNCC1)[C@@H]1CC[C@@H]2CN1C(=O)N2OS(=O)(=O)O` [Relebactam], the “increase in AUC0–∞” value ([9]; adult women vs adult men (historic data from study 1)) was 22%, the “increase in mean plasma exposure” value ([9]; elderly men vs adult men) was 41% and the “increase in mean plasma exposure” value ([9]; elderly women vs adult women) was 45%. For the same compound, the “increase in AUC0–∞” value ([9]; elderly women vs elderly men) was 25%, the half-life (clinical [5]; geometric mean terminal t1/2, range) was 1.42 to 1.85 h and the CL renal at 7 days (clinical [10]) was 173 mL/min. It also gave an AUC(0-inf) [7, 17] of 7.97 ± 1.67 µM·h, a concentration at 30 min [7, 17] of 4.42 ± 1.18 µM and a clearance [7, 17] of 155 ± 30.6 mL/min. It also gave a Vd [7, 17] of 18.3 ± 2.99 L, a half-life ([7]; intravenous, 25 mg, t1/2, relebactam 25 mg alone, single dose) of 1.39 ± 0.246 h and an AUC(0-inf) [7, 18] of 15.6 ± 2.73 µM·h. The concentration at 30 min [7, 18] was 9.04 ± 1.88 µM, the clearance [7, 18] was 157 ± 23.8 mL/min and the Vd [7, 18] was 20.5 ± 3.88 L. The concentration at 30 min [7, 19] was 45.4 ± 7.27 µM, the clearance [7, 19] was 148 ± 16.4 mL/min and the Vd [7, 19] was 20.8 ± 2.77 L. The half-life ([7]; intravenous, 250 mg, t1/2, relebactam 250 mg alone, single dose) was 1.63 ± 0.129 h, the AUC(0-inf) [7, 20] was 180 ± 25.7 µM·h and the concentration at 30 min [7, 20] was 101 ± 17.6 µM. The clearance [7, 20] was 135 ± 19.9 mL/min, the Vd [7, 20] was 19.1 ± 2.64 L and the half-life ([7]; intravenous, 500 mg, t1/2, relebactam 500 mg alone, single dose) was 1.64 ± 0.141 h. The AUC(0-inf) [7, 21] was 373 ± 51.9 µM·h, the concentration at 30 min [7, 21] was 209 ± 28.6 µM and the clearance [7, 21] was 130 ± 18.3 mL/min. The Vd [7, 21] was 20.6 ± 3.46 L, the half-life ([7]; intravenous, 1000 mg, t1/2, relebactam 1,000 mg alone, single dose) was 1.84 ± 0.281 h and the AUC(0-inf) [7, 22] was 396 ± 55.3 µM·h. The concentration at 30 min [7, 22] was 208 ± 18.3 µM, the clearance [7, 22] was 141 ± 18.8 mL/min and the Vd [7, 22] was 21.6 ± 2.69 L. The half-life ([7]; intravenous, 1150 mg, t1/2, relebactam 1,150 mg alone, single dose) was 1.78 ± 0.225 h, the half-life ([7]; intravenous, harmonic mean terminal half-life (t1/2), range, single dose, 25- to 1,150-mg dose range, healthy men) was 1.35 to 1.8 h and the half-life ([7]; iv, terminal half-life (t1/2), range, single- or multiple-dose i.v. administration over 30 min, independent of dose) was 1.35 to 1.85 h. For the same compound, the “AUC0–∞” value ([7]; relebactam 250 mg alone, single dose) was 81.8 ± 9.07 µM·h, the tolerability ([11]; alone or in combination with imipenem-cilastatin, across the dose ranges studied) was “well tolerated” and the “participants reporting ≥1 drug-related AEs” value ([11]; single-dose cohort, part I, n = 16, with or without imipenem-cilastatin) was 50%. The CLR [12] was 144 ± 11.0 mL/min, the CL renal (clinical [8]; 25 mg, CLR) was 177 ± 29.4 mL/min and the CL renal (clinical [8]; 50 mg, CLR) was 166 ± 21.8 mL/min. The CL renal (clinical [8]; 125 mg, CLR) was 159 ± 19.6 mL/min, the CL renal (clinical [8]; 125 mg, CLR, mean (95% CI)) was 158 mL/min and the CL renal (clinical [8]; 250 mg, CLR) was 153 ± 16.5 mL/min. The CL renal (clinical [8]; 500 mg, CLR) was 129 ± 20.7 mL/min, the CL renal (clinical [8]; 1000 mg, CLR) was 127 ± 20.2 mL/min and the CL renal (clinical [8]; 1150 mg, CLR) was 137 ± 20.6 mL/min. The “net active secretion, share of total clearance” value [13] was “approximately 30%”, the CL renal [3, 15] was 106 to 158 mL/min and the CL renal [3, 16] was 69.6 to 89.2 mL/min. The free fraction [14] was 78%.
